# Measurements: patent publication US8952163B2, “Substituted hydroxamic acids and uses thereof” (Millennium Pharmaceuticals, Inc., priority 2010, dated 2015)
# Target: T1, purified human HDAC6 (Homo sapiens, UniProt Q9UBN7)
# T1 construct: purchased BPS Bioscience 5006
# T1 sequence (Q9UBN7 1-1215): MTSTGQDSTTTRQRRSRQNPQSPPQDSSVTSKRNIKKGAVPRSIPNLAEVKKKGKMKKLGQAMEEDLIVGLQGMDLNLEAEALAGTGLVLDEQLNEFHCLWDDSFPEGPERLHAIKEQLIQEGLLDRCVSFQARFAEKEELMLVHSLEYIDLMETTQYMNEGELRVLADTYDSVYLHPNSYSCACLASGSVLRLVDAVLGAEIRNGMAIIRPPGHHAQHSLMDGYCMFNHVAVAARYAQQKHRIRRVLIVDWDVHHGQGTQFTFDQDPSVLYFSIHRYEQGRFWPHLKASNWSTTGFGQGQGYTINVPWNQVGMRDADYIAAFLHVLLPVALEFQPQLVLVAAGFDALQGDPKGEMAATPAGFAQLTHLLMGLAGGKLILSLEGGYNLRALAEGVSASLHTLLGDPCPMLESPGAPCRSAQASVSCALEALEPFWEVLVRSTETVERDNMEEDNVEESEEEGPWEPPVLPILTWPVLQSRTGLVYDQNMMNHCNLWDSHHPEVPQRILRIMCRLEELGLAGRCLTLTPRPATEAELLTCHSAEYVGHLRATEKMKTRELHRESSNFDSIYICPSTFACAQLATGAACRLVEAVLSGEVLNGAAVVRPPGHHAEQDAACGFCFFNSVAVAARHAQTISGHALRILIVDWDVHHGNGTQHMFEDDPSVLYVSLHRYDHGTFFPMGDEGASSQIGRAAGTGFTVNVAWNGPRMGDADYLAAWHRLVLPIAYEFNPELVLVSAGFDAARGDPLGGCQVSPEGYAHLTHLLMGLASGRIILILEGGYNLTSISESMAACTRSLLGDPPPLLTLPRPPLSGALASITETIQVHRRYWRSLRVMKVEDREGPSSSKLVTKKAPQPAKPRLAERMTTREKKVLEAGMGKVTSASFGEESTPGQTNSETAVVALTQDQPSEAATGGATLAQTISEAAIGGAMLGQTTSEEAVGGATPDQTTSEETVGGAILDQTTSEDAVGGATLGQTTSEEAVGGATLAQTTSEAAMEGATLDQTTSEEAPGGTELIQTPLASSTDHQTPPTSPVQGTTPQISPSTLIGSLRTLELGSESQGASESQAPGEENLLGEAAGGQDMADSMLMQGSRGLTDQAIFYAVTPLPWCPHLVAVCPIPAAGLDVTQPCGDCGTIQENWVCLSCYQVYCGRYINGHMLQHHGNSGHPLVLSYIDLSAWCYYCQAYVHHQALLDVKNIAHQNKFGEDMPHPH
# Experiment: HDAC6 Enzyme Assay
# Assay type: biochemical
# Settings: test compound at 1.235 μM; substrate Ac-Arg-Gly-Lys(Ac)-AMC, 1 hour at 30° C.; read-out: Percent Inhibition at 1.235 μM
# Procedure: To measure the inhibition of HDAC6 activity, purified human HDAC6 (BPS Bioscience; Cat. No. 5006) is incubated with substrate Ac-Arg-Gly-Lys(Ac)-AMC peptide (Bachem Biosciences; Cat. No. I-1925) for 1 hour at 30° C. in the presence of test compounds or vehicle DMSO control. The reaction is stopped with the HDAC inhibitor trichostatin A (Sigma; Cat. No. T8552) and the amount of Arg-Gly-Lys-AMC generated is quantitated by digestion with trypsin (Sigma; Cat. No. T1426) and subsequent measurement of the amount of AMC released using a fluorescent plate reader (Pherastar, BMG Technologies) set at Ex 340 nm and Em 460 nm. Concentration response curves are generated by calculating the fluorescence increase in test compound-treated samples relative to DMSO-treated controls, and percentage inhibition values at a single concentration or enzyme inhibition (IC50) values are determined from those curves. One skilled in the art will appreciate that the values generated either as percentage inhibition at a single concentration or IC50 values are subject to experimental variation.
row,SMILES,inhibition at 1.235 µM [%]
1,"O=C(NO)c1ccc2c(n1)CCN(C(=O)c1ccc(Cl)cc1)C2 [Compound I-33, 6-(4-chlorobenzoyl)-N-hydroxy-5,6,7,8-tetrahydro-1,6-naphthyridine-2-carboxamide]",68.8
2,"Cc1ccccc1NC(=O)N1CCc2nc(C(=O)NO)ccc2C1 [Compound I-8, N^2-hydroxy-N^6-(2-methylphenyl)-7,8-dihydro-1,6-naphthyridine-2,6(5H)-dicarboxamide]",40.4
3,"Cc1onc(-c2ccccc2)c1NC(=O)N1CCc2nc(C(=O)NO)ccc2C1 [Compound I-43, N^2-hydroxy-N^6-(5-methyl-3-phenylisoxazol-4-yl)-7,8-dihydro-1,6-naphthyridine-2,6(5H)-dicarboxamide]",23.4
4,"Cn1cccc1C(=O)N1CCc2cc(C(=O)NO)cnc2C1 [Compound I-24, N-hydroxy-7-[(1-methyl-1H-pyrrol-2-yl)carbonyl]-5,6,7,8-tetrahydro-1,7-naphthyridine-3-carboxamide]",92.3
